Measured values from US20150361184A1, “METHODS OF MODULATING DLK STABILITY” (GENENTECH, INC., priority 2013, published 2015).
Peptide text beside a SMILES is read from it. * marks the point of attachment. Cbz = O=C(OCc1ccccc1)*

Legend:
[1] = system: DLK; assay: Western blot for DLK in unstressed embryonic DRG neurons cultured with NGF, treated for three hours; assay type: cell-based, mouse; conditions: DRGs +NGF, 3 hours; OA 200 nM, MG132 30 μM
Description: (§1) Dorsal root ganglia were dissected from E12.5 to E13.5 mouse embryos, trypsinized (except in the case of explants), and cultured in F12 medium containing N3 supplement, 40 mM glucose, and 25 ng/mL NGF on chamber slides coated with poly-d-lysine and laminin (BioCoat, BD). The day after plating, 3 μM arabinofuranoside (AraC, Sigma) was added to the medium, removed two days later, and the medium was replaced with N3/F12/NGF without AraC. For NGF withdrawal experiments, after 4 to 5 days in vitro, medium was replaced with medium containing no NGF and 25 μg/mL anti-NGF antibody (Genentech) for between 1 and 3 hours.
DRG cultures were lysed by incubation on ice for 30 min. in buffer containing 50 mM Tris pH 7.5, 150 mM NaCl, 5 mM EDTA, and 0.1% Triton X-100. HEK 293T cells were lysed by incubation on ice for 30 min. in radioimmunoprecipitation assay (RIPA) buffer. Retina and nerve tissue samples were lysed in RIPA buffer using a TissueLyser (Qiagen) with a 3 mm tungsten carbide bead (Qiagen) for 6 min. Unless otherwise noted, all lysis solutions contained Complete protease inhibitor cocktail and PhosSTOP phosphatase inhibitor cocktail (Roche). Protein concentrations of 293T and retina lysates were determined by BCA assay (Pierce). Samples were loaded on NuPAGE 4-12% Bis-Tris gels (Invitrogen) and subjected to standard immunoblotting procedures. Except where noted, gels blotted for DLK were run in MOPS buffer (Invitrogen). Due to the large size of Phr1, samples blotted for Phr1 were run on 3-8% Tris-Acetate gels (Invitrogen). Blots were visualized with chemiluminescence and exposure to film. For relative protein expression and molecular weight quantifications, blots were also visualized on a Chemidoc (Bio-Rad). Quantifications were performed in ImageLab (Bio-Rad). Protein expression was standardized to a loading control (actin or tubulin). Molecular weight was standardized to Precision Plus Protein WesternC Standards (Bio-Rad).

[2] = system: murine DLK; assay: SILAC mass spectrometry of DLK phosphorylation sites in 293T cells expressing Flag-tagged DLK; assay type: cell-based, mouse; conditions: WT DLK, okadaic acid 200 nM
Description: To identify functionally relevant phosphorylation sites on DLK, mass spectrometry in conjunction with stable isotope labeling by amino acids in cell culture (SILAC) was used. For these studies, 293T cells expressing FLAG-tagged DLK were cultured in SILAC media containing isotopically enriched (Heavy) versions of lysine (^13C6^15N2) and arginine (^13C6^15N4) or their unlabeled counterparts (Light). Four paired conditions (Light vs. Heavy) were established to dissect the effects of JNK and DLK activities on the overall abundance of DLK and the extent of DLK phosphorylation: 1) Wild-type (WT) DLK vs. DLK^S302A, 2) DLK^S302A vs. DLK^S302A co-expressed with a constitutively active JNK construct (Lei, K. et al. Molecular and cellular biology 22, 4929-4942 (2002)), 3) WT DLK vs. WT DLK with JNK inhibitor, and 4) WT DLK vs. WT DLK with okadaic acid (FIG. 5a).

[3] = system: DLK; assay: JNK3 siRNA knockdown in JNK2 knockout DRGs with NGF withdrawal, blot for DLK; assay type: cell-based, mouse; conditions: JNK2 KO embryonic DRGs, compared to control siRNA
Description: as §1
For siRNA experiments, dissociated DRGs were transfected using the Amaxa nucleofection system (Lonza). JNK3 siRNA (sense 5′-ACATCGTAGTCAAGTCTGATTT-3′ (SEQ ID NO:10), antisense 5′-ATCAGACTTGACTACGATGTTT (SEQ ID NO:11)) was synthesized at Genentech (Kim, M. J. et al. Neuron 56, 488-502 (2007)). Control siRNA was ON-TARGETplus Non-targeting siRNA #1 from Dharmacon.
DRG cultures were lysed by incubation on ice for 30 min. in buffer containing 50 mM Tris pH 7.5, 150 mM NaCl, 5 mM EDTA, and 0.1% Triton X-100. […] Protein concentrations of 293T and retina lysates were determined by BCA assay (Pierce). […] For relative protein expression and molecular weight quantifications, blots were also visualized on a Chemidoc (Bio-Rad). Quantifications were performed in ImageLab (Bio-Rad). […]

[4] = system: DLK; assay: DLK expression in stable cell line with dox-inducible DLK construct treated with JNK inhibitors; assay type: cell-based; conditions: inhibitors at 10 μM
Description: HEK 293T cells were lysed by incubation on ice for 30 min. in radioimmunoprecipitation assay (RIPA) buffer. […] Unless otherwise noted, all lysis solutions contained Complete protease inhibitor cocktail and PhosSTOP phosphatase inhibitor cocktail (Roche). Protein concentrations of 293T and retina lysates were determined by BCA assay (Pierce). Samples were loaded on NuPAGE 4-12% Bis-Tris gels (Invitrogen) and subjected to standard immunoblotting procedures. Except where noted, gels blotted for DLK were run in MOPS buffer (Invitrogen). […] Blots were visualized with chemiluminescence and exposure to film. For relative protein expression and molecular weight quantifications, blots were also visualized on a Chemidoc (Bio-Rad). Quantifications were performed in ImageLab (Bio-Rad). Protein expression was standardized to a loading control (actin or tubulin). Molecular weight was standardized to Precision Plus Protein WesternC Standards (Bio-Rad).
A stable cell line that expressed DLK in a doxicyclin-inducible fashion was used and cells were treated with two structurally distinct JNK inhibitors (FIG. 4c).

Row | Compound | apparent molecular weight / phosphorylation of DLK [1] | total levels of DLK protein [1] | fold change in phosphorylation of T43, okadaic-acid-treated vs untreated cells expressing DLK [2] | increase in DLK quantity with NGF withdrawal [3] | DLK expression (levels of DLK protein) [4]
1 | CC(C)C[C@@H](C=O)NC(=O)[C@H](CC(C)C)NC(=O)[C@H](CC(C)C)NC(=O)OCc1ccccc1 [MG132] (Cbz-Leu-Leu-Leu-aldehyde) | without an increase in DLK phosphorylation | produced an increase in DLK levels |  |  | 
2 | C=C1[C@@H](O)[C@@H]2O[C@]3(CC[C@H](/C=C/[C@@H](C)[C@@H]4CC(C)=C[C@@]5(O[C@H](C[C@@](C)(O)C(=O)O)CC[C@H]5O)O4)O3)CC[C@H]2O[C@@H]1[C@@H](O)C[C@H](C)[C@H]1O[C@@]2(CCCCO2)CC[C@H]1C [okadaic acid] | sufficient to increase both the apparent molecular weight and total levels of DLK | sufficient to increase both the apparent molecular weight and total levels of DLK | 7.78 fold |  | 
3 | JNK3 siRNA: siRNA, sense 5′-ACATCGTAGTCAAGTCTGATTT-3′ (SEQ ID NO:10), antisense SEQ ID NO:11, synthesized at Genentech (sense ACATCGTAGTCAAGTCTGATTT; antisense ATCAGACTTGACTACGATGTTT; listed as DNA, chemistry not given here) |  |  |  | attenuated the increase in DLK | 
4 | JNK Inhibitor VII (TAT-TI-JIP153-163) [JNK7] |  |  |  |  | reduces DLK expression
